Reference: patent US7960397B2, “6,9-disubstituted purine derivatives and their use as cosmetics and cosmetic compositions” (Institute of Experimental Botany, Academy of Sciences of …, priority 2007, dated 2011)

Assays:
[1] = test system: cytokinin-dependent tobacco callus Nicotiana tabacum L. cv. Wisconsin 38; assay: Cytokinin activity in tobacco callus bioassay; type: cell-based; conditions: for concentration with highest activity: growth of tobacco callus, four weeks of cultivation, tested 10^−8 M to 10^−4 M; for Activity (%) [10^−5 mol · l^−1 BAP = 100%]: increase of fresh callus weight at the concentration with highest activity, 10^−5 M BAP = 100%
Experimental: Estimation of cytokinin biological activity of novel compounds in callus bioassay. Cytokinin-dependent tobacco callus Nicotiana tabacum L. cv. […] Subcultivation was carried out every three weeks. Fourteen days before the bioassay, the callus tissue was transferred to the media without the compound tested. The biological activity was determined from the increase of the fresh callus weight after four weeks of cultivation. Five replicates were prepared for each concentration of the compound tested and the entire test was repeated twice. […] The relative activity of the compound at this concentration was calculated (Table 8). […] The compounds to be tested were dissolved in dimethylsulfoxide (DMSO) and the solution brought up to 10^−3 M with distilled water. This stock solution was further diluted with the respective media used for the biotest to a concentration ranging from 10^−8 M to 10^−4 M.

[2] = test system: Amaranthus caudatus cotyledon/hypocotyl explants; assay: Amaranthus bioassay (betacyanin content); design: species or system Amaranthus caudatus var. atropurpurea; conditions: for concentration with highest activity: betacyanin content after 48 h incubation, tested 10^−8 M to 10^−4 M; for Activity (%) [10^−5 mol · l^−1 BAP = 100%]: betacyanin content at the concentration with highest activity, 10^−5 M BAP = 100%
Experimental: Testing of novel compounds for typical cytokinin activity in Amaranthus bioassay. A standard Amaranthus bioassay was performed with several modifications. The seeds of Amaranthus caudatus var. atropurpurea were surface-sterilized in 10% (w/v) N-chlorobenzenesulfonamide for 10 min and washed 5 times with deionized water. They were placed in 14 cm Petri dishes containing paper tissues saturated with deionized water. After 72 h of cultivation at 25° C. in darkness, the roots of the seedlings were cut off. The explants, consisting of two cotyledons and hypocotyls, were placed in 5 cm Petri dishes onto two layers of filter paper soaked with 1 ml of the incubation medium containing 10 mmol of NA2HPO4—KH2PO4, pH 6.8, 5 mmol of tyrosine and the compound to be tested. There were 20 explants per dish. The procedure was carried out under a green safe light in a darkroom. […] The concentration of betacyanin was determined from the absorbencies at 537 nm and 620 nm as follows: DA=A537 nm−A620 nm. […] Relative activity of the compound at this concentration was calculated. The activity obtained for 10^−5 M 6-benzylaminopurine (BAP) was defined as 100%.
(§1) The compounds to be tested were dissolved in dimethylsulfoxide (DMSO) and the solution brought up to 10^−3 M with distilled water.

excised wheat leaf tips = assay: Antisenescence test, retention of chlorophyll in excised wheat leaf tips; design: species or system Triticum aestivum cv. Hereward; conditions: for activity (%) [10^−4 mol · l^−1 BAP = 100%]: retention of chlorophyll in excised wheat leaf tips at the concentration with highest activity, 10 replicate determinations; for concentration with highest activity: retention of chlorophyll in excised wheat leaf tips, tested range 10^−8 M to 10^−4 M, 96 h in the dark at 25° C.
Experimental: Testing of antisenescence properties of novel cytokinin compounds on wheat leaf segments. Seeds of winter wheat, Triticum aestivum cv. Hereward, were washed under running water for 24 hours and then sown on vermiculite soaked with the Knop's solution. They were placed in the grow chamber at 25° C. with a 16 h-8 h light period at 50 mmol.m^−2.s^−1. After 7 days, the first leaf was fully developed and the second leaf had started to grow. A 35 mm long tip section of the first leaf, was removed from each of 5 seedlings and trimmed slightly to a combined weight of 100 mg. The basal ends of the five leaf tips were placed in the wells of a microtiter polystyrene plate containing […] of the solution of the tested compound each. The entire plate was inserted into a plastic box lined with paper tissues soaked with distilled water to prevent leaf sections from drying out. After 96 h incubation in the dark at 25° C., the leaves were removed and chlorophyll was extracted by heating at 80° C. for 10 min in 5 ml of 80% ethanol (v/v). The sample volume was then restored to 5 ml by the addition of 80% ethanol (v/v). The absorbance of the extract was recorded at 665 nm. In addition, chlorophyll extracts from fresh leaves and leaf tips incubated in deionized water were measured. […] Relative activity of the compound at this concentration was calculated (Table 7). The activity obtained for 10^−4 M 6-benzylaminopurine (BAP) was defined as 100%. The values shown are means of five replicates and the whole experiment was repeated twice.
as §1

[3] = test system: human diploid fibroblasts (HCA cells, HCA20, HCA40, HCA60); assay: Senescent cells (β-galactosidase staining) in culture of human fibroblasts; type: cell-based; conditions: for SENESCENT CELLS (%) HCA20: human fibroblasts passage 20 (HCA20); for SENESCENT CELLS (%) HCA40: human fibroblasts passage 40 (HCA40); for SENESCENT CELLS (%) HCA60: human fibroblasts passage 60 (HCA60)
Experimental: In this example, human diploid fibroblasts (HCA cells of various passage levels: passage 20—designated HCA20; passage 40—designated HCA40; passage 60—designated HCA60) were stained for β-galactosidase activity. The medium used for the cell cultivation was removed, the cells were washed twice in […], and fixed in 2-3 ml of fixing solution comprised of a 2% formaldehyde and 0.2% glutaraldehyde in PBS. The cells were incubated at room temperature for 5 minutes, and then washed twice with PBS. The cells were subsequently incubated at 37° C.

| Structure (SMILES) | concentration with highest activity [1] | Activity (%) [10^−5 mol · l^−1 BAP = 100%] [1] [%] | concentration with highest activity [2] | Activity (%) [10^−5 mol · l^−1 BAP = 100%] [2] [%] | activity (%) [10^−4 mol · l^−1 BAP = 100%] (excised wheat leaf tips) [%] | concentration with highest activity (excised wheat leaf tips) | SENESCENT CELLS (%) HCA20 [3] [%] | SENESCENT CELLS (%) HCA40 [3] [%] | SENESCENT CELLS (%) HCA60 [3] [%] |
| --- | --- | --- | --- | --- | --- | --- | --- | --- | --- |
| COc1cccc(CNc2ncnc3c2ncn3C2CCCCO2)c1O (stereo not shown) | 10^−6 mol · l^−1 | 11 | 10^−4 mol · l^−1 | 32 | 50 | 10^−4 mol · l^−1 | 3 | 3 | 25 |
| Cc1cccc(CNc2ncnc3c2ncn3C2CCCCO2)c1O (stereo not shown) | 10^−5 mol · l^−1 | 9.2 | 10^−4 mol · l^−1 | 68.8 | 16.4 | 10^−4 mol · l^−1 | 4 | 6 | 30 |
| COc1ccc(CNc2ncnc3c2ncn3C2CCCCO2)c(O)c1 (stereo not shown) | 10^−6 mol · l^−1 | 43 | 10^−4 mol · l^−1 | 37 | 35 | 10^−4 mol · l^−1 | 3 | 4 | 27 |
| Cc1ccc(O)c(CNc2ncnc3c2ncn3C2CCCCO2)c1 (stereo not shown) | 10^−4 mol · l^−1 | 121 | 10^−4 mol · l^−1 | 68.4 | 82 | 10^−4 mol · l^−1 | 5 | 4 | 30 |
| Oc1ccoc1CNc1ncnc2c1ncn2C1CCCCO1 (stereo not shown) | 10^−6 mol · l^−1 | 52 | 10^−4 mol · l^−1 | 65 | 45 | 10^−4 mol · l^−1 | 4 | 4 | 18 |
| COc1cc(O)cc(OC)c1Nc1ncnc2c1ncn2C1CCCCO1 (stereo not shown) | 10^−5 mol · l^−1 | 15 | 10^−4 mol · l^−1 | 8 | 14 | 10^−4 mol · l^−1 | 4 | 6 | 24 |
| CC(CO)CCNc1ncnc2c1ncn2C1CCCO1 (stereo not shown) | 10^−5 mol · l^−1 | 105 | 10^−4 mol · l^−1 | 80 | 91 | 10^−4 mol · l^−1 | 5 | 2 | 25 |
| COc1cc(Nc2ncnc3c2ncn3C2CCCCO2)cc(OC)c1O (stereo not shown) | 10^−5 mol · l^−1 | 19 | 10^−4 mol · l^−1 | 10 | 28 | 10^−4 mol · l^−1 | 4 | 5 | 22 |
| COc1cc(CNc2ncnc3c2ncn3C2CCCCO2)cc(OC)c1O (stereo not shown) | 10^−5 mol · l^−1 | 39 | 10^−4 mol · l^−1 | 8 | 42 | 10^−4 mol · l^−1 | 4 | 5 | 17 |
| Oc1ccccc1Nc1ncnc2c1ncn2C1CCCCO1 (stereo not shown) [2-hydroxyanilino / tetrahydropyran-2-yl] | 10^−5 mol · l^−1 | 30 | 10^−4 mol · l^−1 | 65 | 11 | 10^−4 mol · l^−1 | 4 | 6 | 29 |
| Oc1ccc(Nc2ncnc3c2ncn3C2CCCO2)cc1 (stereo not shown) [4-hydroxyanilino / tetrahydrofuran-2-yl] | 10^−5 mol · l^−1 | 10 | 10^−4 mol · l^−1 | 22 | 28 | 10^−4 mol · l^−1 | – | – | – |
| Oc1ccc(Nc2ncnc3c2ncn3C2CCCCO2)cc1 (stereo not shown) [4-hydroxyanilino / tetrahydropyran-2-yl, 6-(4-hydroxyanilino)-9-(tetrahydropyran-2-yl)-purine] | 10^−5 mol · l^−1 | 22 | 10^−4 mol · l^−1 | 32 | – | – | 4 | 6 | 16 |
